Results taken from paper PMC6669322, “Small Molecule Binding to Alzheimer Risk Factor CD33 Promotes Aβ Phagocytosis” (iScience, 2019).

Target: T1, CD33 F21A (Homo sapiens, UniProt P20138, F21A)
T1 construct: human CD33 ORF (NM_001772.3), lacking its signal peptide; expressed in transfected cells; host or cells: HEK293T, transient, pT8-SNAP vector
Assay: SNAP-tag homogeneous time-resolved fluorescence binding assay, CD33 F21A
Conditions: binding affinity, F21A vs WT
Method: We then used our structural data to design mutations of key residues interacting with P22 to assess which interactions were the most important for binding affinity. The residues were mutated into alanine, and the effect of these mutations on P22 binding affinity was assessed using a SNAP-tag homogeneous time-resolved fluorescence binding assay (see Transparent Methods and Figures 3E–3G). The R119A mutation, which destroys the salt bridge between P22 and CD33, was one of the most detrimental to binding (>30-fold loss) (Figure 2C and Table S4). […]
HEK293T cells were cultured in DMEM (ThermoFisher Scientific # 11965092) containing 10% FBS (Hyclone # SH30070.03) and 1% Penicillin-Streptomycin (ThermoFisher Scientific # 15140122) and transfected using Fugene HD (Promega # E2312) in 10 cm plates. […] The cells were counted, centrifuged and resuspended in PBS at a concentration of 1,000 cells/μL and 10 μL were plated into each well. […] Non-specific binding was assessed by competition with 100 μM of the non-labeled P22, as well as in control (Snap-tagged dopamine D2R receptor)-transfected cells.
Fluorescence was read with a PHERAstar plate reader using an excitation of 337 nm and emissions of 620 and 665 nm. […]

T1 sequence (P20138 18-364 F21A): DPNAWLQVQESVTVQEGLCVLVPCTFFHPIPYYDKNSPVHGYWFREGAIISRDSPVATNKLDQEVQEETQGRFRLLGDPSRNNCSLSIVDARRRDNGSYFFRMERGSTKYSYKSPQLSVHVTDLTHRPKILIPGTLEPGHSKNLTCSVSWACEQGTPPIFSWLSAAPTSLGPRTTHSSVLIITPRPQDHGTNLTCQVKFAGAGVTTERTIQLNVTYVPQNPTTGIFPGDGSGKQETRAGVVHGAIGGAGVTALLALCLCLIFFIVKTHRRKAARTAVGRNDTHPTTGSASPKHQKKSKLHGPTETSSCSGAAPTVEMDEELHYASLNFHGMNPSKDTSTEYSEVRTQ

Fold-decrease compared to WT: 6 fold
Compound: Cc1cc(C(=O)NC[C@@H](O)[C@@H](O)[C@@H]2O[C@@](OC[C@H]3O[C@@H](O[C@H]4[C@H](O)[C@@H](O)[C@H](OCCN)O[C@@H]4CO)[C@H](O)[C@@H](O)[C@H]3O)(C(=O)O)C[C@H](O)[C@H]2NC(=O)Cn2cc(C3CCCCC3)nn2)cc(C)c1O [P22, β-D-Glucopyranoside, 2-aminoethyl O-[N-[2-(4-cyclohexyl-1H-1,2,3-triazol-1-yl)acetyl]-9-deoxy-9-[(4-hydroxy-3,5-dimethylbenzoyl)amino]-α-neuraminosyl] (2→6)-O-β-D-galactopyranosyl-(1→4)-]
